Data reported in ChEMBL document CHEMBL4800731, “Data for DCP probe JNJ-65355394” (2021).
Calls of active or inactive are those of the source. The rule behind the calls is not given here.

Tests used:
[1] = molecular target: 5-hydroxytryptamine receptor 1B (Rattus norvegicus) (UniProt P28564); experiment: r5HT1B Cerep panel
[2] = molecular target: C-C chemokine receptor type 1 (Homo sapiens) (UniProt P32246); experiment: hCCR1 Cerep panel
[3] = molecular target: Somatostatin receptor (Mus musculus) (UniProt P30935+O08858+P30875+P30873+P49660); experiment: mSST Cerep panel; assay type: protein assay
[4] = molecular target: 5-hydroxytryptamine receptor 7 (Homo sapiens) (UniProt P34969); experiment: h5HT7 Cerep panel
Sequence of 5-hydroxytryptamine receptor 7 (Homo sapiens) (P34969 whole entry): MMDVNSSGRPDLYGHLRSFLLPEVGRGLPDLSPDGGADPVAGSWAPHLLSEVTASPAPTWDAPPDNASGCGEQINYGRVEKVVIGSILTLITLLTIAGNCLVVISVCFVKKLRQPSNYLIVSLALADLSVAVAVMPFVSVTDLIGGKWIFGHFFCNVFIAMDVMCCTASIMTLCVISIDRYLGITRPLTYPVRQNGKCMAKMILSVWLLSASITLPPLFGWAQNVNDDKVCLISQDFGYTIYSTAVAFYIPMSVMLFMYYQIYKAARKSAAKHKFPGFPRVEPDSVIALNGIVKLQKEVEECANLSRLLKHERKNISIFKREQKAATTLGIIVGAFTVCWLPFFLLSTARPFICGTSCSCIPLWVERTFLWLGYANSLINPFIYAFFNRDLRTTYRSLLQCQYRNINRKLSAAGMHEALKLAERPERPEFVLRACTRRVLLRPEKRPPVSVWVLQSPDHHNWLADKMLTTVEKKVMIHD

Rattus norvegicus = species on record: Rattus norvegicus; experiment: rCLCH Cerep panel
[5] = molecular target: 5-hydroxytryptamine receptor 2B (Homo sapiens) (UniProt P41595); experiment: h5HT2B Cerep panel
Sequence of 5-hydroxytryptamine receptor 2B (Homo sapiens) (P41595 whole entry): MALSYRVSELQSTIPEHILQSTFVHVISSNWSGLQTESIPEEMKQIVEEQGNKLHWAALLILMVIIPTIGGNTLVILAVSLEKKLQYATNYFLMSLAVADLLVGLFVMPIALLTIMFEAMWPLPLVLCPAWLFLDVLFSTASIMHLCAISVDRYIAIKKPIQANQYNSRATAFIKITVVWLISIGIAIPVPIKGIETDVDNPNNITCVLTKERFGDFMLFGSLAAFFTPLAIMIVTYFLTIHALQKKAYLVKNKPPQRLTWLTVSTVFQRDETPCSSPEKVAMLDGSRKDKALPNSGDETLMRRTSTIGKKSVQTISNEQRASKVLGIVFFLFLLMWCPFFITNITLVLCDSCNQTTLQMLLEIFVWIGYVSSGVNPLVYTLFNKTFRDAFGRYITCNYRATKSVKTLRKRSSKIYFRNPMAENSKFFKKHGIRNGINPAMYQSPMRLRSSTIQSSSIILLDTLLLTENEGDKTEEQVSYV

[6] = molecular target: Mu-type opioid receptor (Homo sapiens) (UniProt P35372); experiment: hOP3 Cerep panel
Sequence of Mu-type opioid receptor (Homo sapiens) (P35372 whole entry): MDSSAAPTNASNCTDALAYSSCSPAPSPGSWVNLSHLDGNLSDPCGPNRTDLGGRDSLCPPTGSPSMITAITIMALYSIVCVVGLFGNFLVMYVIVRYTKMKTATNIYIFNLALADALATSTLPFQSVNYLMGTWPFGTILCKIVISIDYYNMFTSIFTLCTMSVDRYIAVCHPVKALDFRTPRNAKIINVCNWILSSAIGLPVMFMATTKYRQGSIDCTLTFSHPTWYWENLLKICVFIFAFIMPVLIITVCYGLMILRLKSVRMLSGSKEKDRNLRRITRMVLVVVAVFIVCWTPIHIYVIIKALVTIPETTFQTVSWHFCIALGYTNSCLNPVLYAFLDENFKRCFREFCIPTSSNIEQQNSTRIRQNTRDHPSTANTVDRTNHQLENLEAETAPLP

[7] = molecular target: C-X-C chemokine receptor type 2 (Homo sapiens) (UniProt P25025); experiment: hBCXCR2 Cerep panel
Sequence of C-X-C chemokine receptor type 2 (Homo sapiens) (P25025 whole entry): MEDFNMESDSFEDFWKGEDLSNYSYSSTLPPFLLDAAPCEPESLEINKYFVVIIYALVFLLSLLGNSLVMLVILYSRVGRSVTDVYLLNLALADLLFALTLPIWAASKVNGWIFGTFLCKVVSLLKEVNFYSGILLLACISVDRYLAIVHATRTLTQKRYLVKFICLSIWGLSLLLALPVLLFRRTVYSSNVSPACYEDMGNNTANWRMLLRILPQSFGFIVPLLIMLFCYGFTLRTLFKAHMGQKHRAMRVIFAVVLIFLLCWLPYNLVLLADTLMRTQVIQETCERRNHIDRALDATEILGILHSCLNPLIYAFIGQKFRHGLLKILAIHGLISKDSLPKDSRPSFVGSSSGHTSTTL

[8] = molecular target: Neurotensin receptor type 1 (Homo sapiens) (UniProt P30989); experiment: hNT1 Cerep panel
Sequence of Neurotensin receptor type 1 (Homo sapiens) (P30989 whole entry): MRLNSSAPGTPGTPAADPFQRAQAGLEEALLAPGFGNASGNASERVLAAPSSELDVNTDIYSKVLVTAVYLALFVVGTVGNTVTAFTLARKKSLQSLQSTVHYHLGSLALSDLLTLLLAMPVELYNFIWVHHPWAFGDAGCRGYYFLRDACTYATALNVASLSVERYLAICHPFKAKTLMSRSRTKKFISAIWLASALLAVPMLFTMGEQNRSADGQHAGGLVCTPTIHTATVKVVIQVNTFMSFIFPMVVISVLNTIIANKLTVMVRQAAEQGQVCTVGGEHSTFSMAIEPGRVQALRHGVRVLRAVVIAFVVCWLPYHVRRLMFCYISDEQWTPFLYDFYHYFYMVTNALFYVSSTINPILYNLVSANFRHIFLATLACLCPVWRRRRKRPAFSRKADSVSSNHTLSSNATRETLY

[9] = molecular target: Kappa-type opioid receptor (Homo sapiens, UniProt P41145); experiment: GPCRScan assay: inhibition of KOR; set-up: radioligand conc. used [nm] 0.6 – 1.2, parental cells stable HEK
Sequence of Kappa-type opioid receptor (P41145 whole entry): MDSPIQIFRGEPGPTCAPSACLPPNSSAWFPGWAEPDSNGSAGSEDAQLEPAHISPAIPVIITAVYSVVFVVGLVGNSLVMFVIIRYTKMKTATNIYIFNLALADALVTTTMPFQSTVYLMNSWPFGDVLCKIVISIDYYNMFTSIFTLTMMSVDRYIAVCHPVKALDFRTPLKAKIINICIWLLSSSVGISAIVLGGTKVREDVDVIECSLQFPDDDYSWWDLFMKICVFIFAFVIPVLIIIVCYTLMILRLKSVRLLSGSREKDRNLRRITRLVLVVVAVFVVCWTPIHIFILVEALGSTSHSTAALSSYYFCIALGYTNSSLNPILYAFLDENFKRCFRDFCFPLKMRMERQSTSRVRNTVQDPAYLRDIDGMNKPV

[10] = molecular target: T1, Muscarinic acetylcholine receptor M1 (Homo sapiens) (UniProt P11229); experiment: hM1 Cerep panel
T1 sequence (whole entry): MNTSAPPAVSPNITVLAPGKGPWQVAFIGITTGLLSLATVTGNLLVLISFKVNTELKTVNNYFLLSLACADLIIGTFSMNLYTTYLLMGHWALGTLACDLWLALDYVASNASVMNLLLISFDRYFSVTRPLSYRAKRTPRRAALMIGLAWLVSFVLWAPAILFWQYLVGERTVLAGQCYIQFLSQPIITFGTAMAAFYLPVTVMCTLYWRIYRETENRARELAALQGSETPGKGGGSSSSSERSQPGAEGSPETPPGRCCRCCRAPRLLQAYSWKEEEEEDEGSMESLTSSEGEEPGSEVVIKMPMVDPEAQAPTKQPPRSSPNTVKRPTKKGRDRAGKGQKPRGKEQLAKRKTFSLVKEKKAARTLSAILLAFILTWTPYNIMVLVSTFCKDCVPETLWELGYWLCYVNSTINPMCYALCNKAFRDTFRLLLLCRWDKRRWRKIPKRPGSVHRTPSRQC

Protein O-GlcNAcase = molecular target: T2, Protein O-GlcNAcase (Homo sapiens, UniProt O60502); experiment: Cell-based OGA assay
T2 sequence (O60502 whole entry): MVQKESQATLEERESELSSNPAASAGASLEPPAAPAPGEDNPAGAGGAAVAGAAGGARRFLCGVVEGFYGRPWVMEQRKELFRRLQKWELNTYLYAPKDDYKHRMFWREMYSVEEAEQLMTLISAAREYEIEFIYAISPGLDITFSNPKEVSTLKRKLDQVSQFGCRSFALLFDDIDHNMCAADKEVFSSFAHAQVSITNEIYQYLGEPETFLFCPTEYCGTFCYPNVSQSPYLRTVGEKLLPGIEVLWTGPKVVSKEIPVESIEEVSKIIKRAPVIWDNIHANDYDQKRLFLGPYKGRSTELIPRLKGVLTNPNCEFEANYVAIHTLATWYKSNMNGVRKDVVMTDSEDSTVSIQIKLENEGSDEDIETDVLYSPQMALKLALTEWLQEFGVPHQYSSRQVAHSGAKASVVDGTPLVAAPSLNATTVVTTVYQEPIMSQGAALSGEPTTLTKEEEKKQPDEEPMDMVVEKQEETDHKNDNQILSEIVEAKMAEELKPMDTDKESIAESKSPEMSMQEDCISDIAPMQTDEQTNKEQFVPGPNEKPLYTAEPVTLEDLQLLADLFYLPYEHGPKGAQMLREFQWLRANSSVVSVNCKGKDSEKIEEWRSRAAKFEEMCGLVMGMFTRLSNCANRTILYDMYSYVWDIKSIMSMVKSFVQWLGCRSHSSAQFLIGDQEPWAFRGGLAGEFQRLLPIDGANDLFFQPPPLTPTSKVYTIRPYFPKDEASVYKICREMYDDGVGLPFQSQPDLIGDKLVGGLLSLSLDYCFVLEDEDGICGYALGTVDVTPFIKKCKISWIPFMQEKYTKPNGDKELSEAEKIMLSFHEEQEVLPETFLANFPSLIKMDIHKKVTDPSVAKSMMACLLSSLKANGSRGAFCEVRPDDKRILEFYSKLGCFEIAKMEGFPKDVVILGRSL

[11] = molecular target: Histamine H2 receptor (Homo sapiens) (UniProt P25021); experiment: hH2 Cerep panel
[12] = molecular target: T3, 5-hydroxytryptamine receptor 1A (Homo sapiens) (UniProt P08908); experiment: h5HT1A Cerep panel
T3 sequence (whole entry): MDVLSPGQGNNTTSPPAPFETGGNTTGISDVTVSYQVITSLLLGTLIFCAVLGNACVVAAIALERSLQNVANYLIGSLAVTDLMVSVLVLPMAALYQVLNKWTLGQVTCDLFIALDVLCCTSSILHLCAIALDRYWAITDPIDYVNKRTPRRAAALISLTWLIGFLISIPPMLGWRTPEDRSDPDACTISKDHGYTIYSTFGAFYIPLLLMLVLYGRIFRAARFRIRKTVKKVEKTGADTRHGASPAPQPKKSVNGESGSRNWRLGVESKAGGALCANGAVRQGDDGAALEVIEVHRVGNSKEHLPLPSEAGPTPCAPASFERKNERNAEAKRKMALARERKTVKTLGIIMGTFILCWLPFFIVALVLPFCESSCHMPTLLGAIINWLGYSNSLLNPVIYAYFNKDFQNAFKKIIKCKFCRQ

[13] = molecular target: Nociceptin receptor (Homo sapiens) (UniProt P41146); experiment: hORL1 Cerep panel
Sequence of Nociceptin receptor (Homo sapiens) (P41146 whole entry): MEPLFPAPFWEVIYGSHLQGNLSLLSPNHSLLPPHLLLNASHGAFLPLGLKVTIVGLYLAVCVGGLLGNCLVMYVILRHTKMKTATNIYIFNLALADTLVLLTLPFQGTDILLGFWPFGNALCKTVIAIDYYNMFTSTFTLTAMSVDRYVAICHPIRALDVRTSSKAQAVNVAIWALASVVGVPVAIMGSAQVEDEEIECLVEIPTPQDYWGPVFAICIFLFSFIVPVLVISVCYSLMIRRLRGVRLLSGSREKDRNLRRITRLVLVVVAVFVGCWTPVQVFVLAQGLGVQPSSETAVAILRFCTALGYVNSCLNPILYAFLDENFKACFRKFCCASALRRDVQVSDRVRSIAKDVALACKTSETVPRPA

[14] = molecular target: T4, Muscarinic acetylcholine receptor M2 (Homo sapiens) (UniProt P08172); experiment: hM2 Cerep panel
T4 sequence (whole entry): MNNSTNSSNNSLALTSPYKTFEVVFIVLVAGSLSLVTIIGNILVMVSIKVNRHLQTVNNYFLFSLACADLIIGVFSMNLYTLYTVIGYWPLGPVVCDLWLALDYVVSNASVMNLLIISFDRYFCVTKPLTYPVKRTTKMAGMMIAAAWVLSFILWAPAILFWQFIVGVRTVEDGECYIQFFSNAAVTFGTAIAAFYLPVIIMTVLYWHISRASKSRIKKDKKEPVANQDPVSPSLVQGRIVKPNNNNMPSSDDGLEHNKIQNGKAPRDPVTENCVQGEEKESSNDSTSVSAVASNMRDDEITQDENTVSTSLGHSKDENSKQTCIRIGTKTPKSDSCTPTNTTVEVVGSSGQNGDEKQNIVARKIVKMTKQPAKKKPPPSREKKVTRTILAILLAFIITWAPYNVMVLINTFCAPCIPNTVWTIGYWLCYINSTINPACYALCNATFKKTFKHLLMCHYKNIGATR

[15] = molecular target: Sodium-dependent serotonin transporter (Homo sapiens, UniProt P31645); experiment: GPCRScan assay: inhibition of SERT; set-up: radioligand conc. used [nm] 1.5 – 2.0, parental cells stable HEK
Sequence of Sodium-dependent serotonin transporter (P31645 whole entry): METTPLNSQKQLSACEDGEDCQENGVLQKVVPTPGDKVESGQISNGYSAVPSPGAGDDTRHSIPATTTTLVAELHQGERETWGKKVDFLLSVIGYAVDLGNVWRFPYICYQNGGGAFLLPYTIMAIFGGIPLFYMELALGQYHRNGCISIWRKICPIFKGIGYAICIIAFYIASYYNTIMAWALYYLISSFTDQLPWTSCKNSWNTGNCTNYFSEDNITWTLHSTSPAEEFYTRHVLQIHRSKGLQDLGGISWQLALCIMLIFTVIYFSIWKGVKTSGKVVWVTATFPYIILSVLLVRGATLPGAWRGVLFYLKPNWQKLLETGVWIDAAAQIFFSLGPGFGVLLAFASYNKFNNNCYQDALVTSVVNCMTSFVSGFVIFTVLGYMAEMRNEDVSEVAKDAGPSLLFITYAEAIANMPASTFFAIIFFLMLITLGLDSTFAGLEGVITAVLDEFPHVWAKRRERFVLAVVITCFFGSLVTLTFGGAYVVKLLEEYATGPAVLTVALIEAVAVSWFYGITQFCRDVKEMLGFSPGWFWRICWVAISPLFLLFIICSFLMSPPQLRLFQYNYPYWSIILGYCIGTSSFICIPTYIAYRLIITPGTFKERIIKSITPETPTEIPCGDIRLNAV

[16] = molecular target: Sodium-dependent dopamine transporter (Homo sapiens, UniProt Q01959); experiment: GPCRScan assay: inhibition of DAT; set-up: radioligand conc. used [nm] 3.6 – 16.0, parental cells stable HEK
Sequence of Sodium-dependent dopamine transporter (Q01959 whole entry): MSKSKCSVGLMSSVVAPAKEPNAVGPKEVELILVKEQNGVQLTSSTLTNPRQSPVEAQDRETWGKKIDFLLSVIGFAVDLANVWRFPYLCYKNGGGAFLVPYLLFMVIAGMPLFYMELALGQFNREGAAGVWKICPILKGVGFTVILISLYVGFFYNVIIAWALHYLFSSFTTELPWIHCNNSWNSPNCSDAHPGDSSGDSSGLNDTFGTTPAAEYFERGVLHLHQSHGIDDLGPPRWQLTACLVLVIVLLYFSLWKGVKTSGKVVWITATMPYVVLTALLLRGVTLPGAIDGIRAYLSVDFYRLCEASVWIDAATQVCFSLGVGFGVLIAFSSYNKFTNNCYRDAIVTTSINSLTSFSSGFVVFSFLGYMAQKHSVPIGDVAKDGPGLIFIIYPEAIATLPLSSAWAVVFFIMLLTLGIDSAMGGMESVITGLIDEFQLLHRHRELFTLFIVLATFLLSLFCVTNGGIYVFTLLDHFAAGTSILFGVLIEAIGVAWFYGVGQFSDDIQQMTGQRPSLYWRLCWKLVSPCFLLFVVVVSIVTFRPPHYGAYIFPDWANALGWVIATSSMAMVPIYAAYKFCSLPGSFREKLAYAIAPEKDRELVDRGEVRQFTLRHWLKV

Sequence of C-C chemokine receptor type 1 (Homo sapiens) (P32246 whole entry): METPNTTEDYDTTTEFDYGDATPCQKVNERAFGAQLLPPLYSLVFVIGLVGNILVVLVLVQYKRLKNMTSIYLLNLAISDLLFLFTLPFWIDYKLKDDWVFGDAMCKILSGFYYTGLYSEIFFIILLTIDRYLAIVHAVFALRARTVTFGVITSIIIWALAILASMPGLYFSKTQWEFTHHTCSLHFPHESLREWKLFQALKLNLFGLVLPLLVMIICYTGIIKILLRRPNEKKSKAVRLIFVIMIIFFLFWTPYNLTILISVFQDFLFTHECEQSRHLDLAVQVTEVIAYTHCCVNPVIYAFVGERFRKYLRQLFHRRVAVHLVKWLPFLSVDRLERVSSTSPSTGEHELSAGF
Sequence of 5-hydroxytryptamine receptor 1B (Rattus norvegicus) (P28564 whole entry): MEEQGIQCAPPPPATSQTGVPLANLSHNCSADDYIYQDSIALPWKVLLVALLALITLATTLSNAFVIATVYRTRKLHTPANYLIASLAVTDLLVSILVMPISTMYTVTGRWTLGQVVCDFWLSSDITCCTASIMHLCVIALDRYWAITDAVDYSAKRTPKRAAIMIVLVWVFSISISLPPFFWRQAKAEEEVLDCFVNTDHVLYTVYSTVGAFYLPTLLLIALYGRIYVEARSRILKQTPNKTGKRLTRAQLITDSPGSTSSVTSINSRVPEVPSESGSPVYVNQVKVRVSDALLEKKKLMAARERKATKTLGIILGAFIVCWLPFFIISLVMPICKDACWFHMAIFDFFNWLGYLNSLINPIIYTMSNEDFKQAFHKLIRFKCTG

For `CC(=O)Nc1ncc(CN2CCC[C@H](Cc3cc(C)nc(C)c3)C2)s1` [JNJ-65355394], the effect [1] was -9.65%, the effect [2] was -1.85% and the effect [3] was 4.2%. For the same compound, the effect [4] was -1.65%, the effect (Rattus norvegicus) was -5.7% and the effect [5] was 6.3%. For the same compound, the effect [6] was 55.4%, the effect [7] was 0.85% and the effect [8] was 4.15%. It also gave a Ki ([9]; read-out: Ki) of 0.773 µM, a Ki ([9]; read-out: pKi (converted)) of 0.741 µM and an effect [10] of 32.5%. For the same compound, the IC50 (Protein O-GlcNAcase) was 0.0039 µM (active), the effect [11] was 11.4% and the effect [12] was 9.45%. It also gave an effect [13] of -5.7% and an effect [14] of 25.4%.
`CC(=O)Nc1nc(CN2CCC[C@H](Cc3cc(C)nc(C)c3)C2)cs1` [JNJ-73924149] showed a Ki ([15]; read-out: Ki) of 2.61 µM, a Ki ([15]; read-out: pKi (converted)) of 2.57 µM and a Ki ([16]; read-out: Ki) of 5.28 µM. The Ki ([16]; read-out: pKi (converted)) was 5.25 µM.
